Source: US20140155406A1, “4-IMIDAZOPYRIDAZIN-1-YL-BENZAMIDES AND 4-IMIDAZOTRIAZIN-1-YL-BENZAMIDES BTK INHIBITORS” (priority 2011, published 2014)

Tests used:
Lyn enzyme = biological target: T1, Lyn enzyme (Homo sapiens, UniProt P07948); assay: Lyn enzyme activity, IMAP fluorescence polarization assay; format: biochemical; conditions: 60 min pre-incubation, 2 μM ATP (Km)
T1 construct: purchased Millipore 14-510
Description: Lyn enzyme activity is measured using the IMAP (immobilized metal ion affinity-based fluorescence polarization) assay as outlined below.
Lyn enzyme (Millipore catalog#14-510), is diluted to 250 mU/mL in KR buffer (10 mM Tris-HCl, 10 mM MgCl2, 0.01% Tween-20, 0.05% NaN3, 1 mM DTT, 2 mM MnCl2, pH 7.2). Serial dilution log 10 from 2 mM to 63.2 nM of test compounds are made in 100% DMSO. The dilutions in DMSO are then diluted 50-fold in KR-buffer of which 5 μl is used in the assay, leading to a final compound concentration range in the assay from 10 μM to 0.316 nM. 5 μL/well of test compound in KR buffer (final DMSO concentration in the assay is 1%) is mixed with 5 μl/well of 250 mU/mL Lyn enzyme (final concentration in the assay is 62.5 mU/mL). Test compounds and Lyn enzyme are pre-incubated 60 minutes at room temperature, before adding 5 μL/well of 400 nM Fluorescin labeled substrate peptide (Blk/Lyntide substrate, e.g. #R7188/#R7233, Molecular Devices) in KR-buffer. Final peptide substrate concentration in assay is 100 nM. The kinase assay is started by adding 5 μL/well of 8 μM ATP in KR-buffer (final ATP concentration is 2 μM ATP, Km ATP in Lyn IMAP assay). Following incubation for 2 h at room temperature the enzyme reaction is stopped by adding 40 μL/well IMAP Progressive Binding Solution (according to suppliers (Molecular Devices) protocol using 75% 1× buffer A and 25% 1× buffer B with 1:600 Progressive Binding Solution). After 60 min incubation at room temperature in the dark the FP signal is read. Fluorescence at 535 nm is measured using parallel and perpendicular filters to determine differences in rotation due to binding of the phosphorylated substrate peptide to the beads. Values are calculated as percentage of the difference in readout (ΔmPi) of the controls with and without ATP. EC50 values are determined by curve fitting of the experimental results using Activity Base.

Btk enzyme (His-Btk) = biological target: T2, Btk enzyme (His-Btk) (Homo sapiens, UniProt Q06187); assay: Btk enzyme activity, IMAP fluorescence polarization assay; format: biochemical; conditions: 60 min pre-incubation, 5 μM ATP (Km)
T2 construct: His; purchased Millipore 14-552
T2 sequence (Q06187 whole entry): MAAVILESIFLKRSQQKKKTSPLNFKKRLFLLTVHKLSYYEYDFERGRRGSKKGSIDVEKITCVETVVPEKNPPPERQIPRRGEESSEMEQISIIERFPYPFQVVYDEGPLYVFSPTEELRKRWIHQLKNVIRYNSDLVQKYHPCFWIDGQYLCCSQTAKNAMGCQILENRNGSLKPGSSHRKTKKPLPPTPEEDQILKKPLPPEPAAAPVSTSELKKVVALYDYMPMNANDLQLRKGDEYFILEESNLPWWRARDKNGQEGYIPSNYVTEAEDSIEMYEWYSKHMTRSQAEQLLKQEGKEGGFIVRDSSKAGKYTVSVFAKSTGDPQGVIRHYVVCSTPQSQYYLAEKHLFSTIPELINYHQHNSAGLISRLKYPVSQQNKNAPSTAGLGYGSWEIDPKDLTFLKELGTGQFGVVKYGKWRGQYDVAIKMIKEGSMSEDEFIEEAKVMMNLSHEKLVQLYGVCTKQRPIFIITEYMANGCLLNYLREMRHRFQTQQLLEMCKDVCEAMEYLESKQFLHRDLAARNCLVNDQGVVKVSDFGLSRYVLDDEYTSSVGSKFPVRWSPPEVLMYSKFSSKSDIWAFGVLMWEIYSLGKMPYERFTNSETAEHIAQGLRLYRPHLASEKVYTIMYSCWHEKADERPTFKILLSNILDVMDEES
Source text: Inhibition of kinase activity can be measured using the Immobilized Metal Assay for Phosphochemicals (IMAP) assay. IMAP is a homogeneous fluorescence polarization (FP) assay based on affinity capture of phosphorylated peptide substrates. IMAP uses fluorescein-labeled peptide substrates that, upon phosphorylation by a protein kinase, bind to so-called IMAP nanoparticles, which are derivatized with trivalent metal complexes. Binding causes a change in the rate of the molecular motion of the peptide, and results in an increase in the FP value observed for the fluorescein label attached to the substrate peptide (Gaudet et al. A homogeneous fluorescence polarization assay adaptable for a range of protein serine/threonine and tyrosine kinases. J. Biomol. Screen (2003) 8, 164-175).
Btk enzyme activity is measured using the IMAP (immobilized metal ion affinity-based fluorescence polarization) assay as outlined below.
Btk enzyme (His-Btk (Millipore catalog#14-552), is diluted to 0.4 U/mL in KR buffer (10 mM Tris-HCl, 10 mM MgCl2, 0.01% Tween-20, 0.05% NaN3, 1 mM DTT, 2 mM MnCl2, pH 7.2).
Serial dilution log 10 from 2 mM to 63.2 nM of test compounds are made in 100% DMSO. The dilutions in DMSO are then diluted 50-fold in KR-buffer. Final compound concentration range in the assay from 10 μM to 0.316 nM.
5 μL/well of test compound in KR buffer (final DMSO concentration in the assay is 1%) is mixed with 5 μl/well of 0.4 U/mL Btk enzyme (final concentration in the assay is 0.1 U/mL). Test compounds and Btk enzyme are pre-incubated 60 minutes at room temperature, before adding 5 μL/well of 200 nM Fluorescin labeled substrate peptide (Blk/Lyntide substrate, e.g. #R7188/#R7233, Molecular Devices) in KR-buffer. Final peptide substrate concentration in assay is 50 nM. The kinase assay is started by adding 5 μL/well of 20 μM ATP in KR-buffer (final ATP concentration is 5 μM ATP, Km ATP in Btk IMAP assay). Following incubation for 2 h at room temperature the enzyme reaction is stopped by adding 40 μL/well IMAP Progressive Binding Solution (according to suppliers (Molecular Devices) protocol using 75% 1× buffer A and 25% 1× buffer B with 1:600 Progressive Binding Solution). After 60 min incubation at room temperature in the dark the FP signal is read. Fluorescence at 535 nm is measured using parallel and perpendicular filters to determine differences in rotation due to binding of the phosphorylated substrate peptide to the beads. Values are calculated as percentage of the difference in readout (ΔmPi) of the controls with and without ATP. EC50 values are determined by curve fitting of the experimental results using Activity Base.

T1 sequence (P07948 whole entry): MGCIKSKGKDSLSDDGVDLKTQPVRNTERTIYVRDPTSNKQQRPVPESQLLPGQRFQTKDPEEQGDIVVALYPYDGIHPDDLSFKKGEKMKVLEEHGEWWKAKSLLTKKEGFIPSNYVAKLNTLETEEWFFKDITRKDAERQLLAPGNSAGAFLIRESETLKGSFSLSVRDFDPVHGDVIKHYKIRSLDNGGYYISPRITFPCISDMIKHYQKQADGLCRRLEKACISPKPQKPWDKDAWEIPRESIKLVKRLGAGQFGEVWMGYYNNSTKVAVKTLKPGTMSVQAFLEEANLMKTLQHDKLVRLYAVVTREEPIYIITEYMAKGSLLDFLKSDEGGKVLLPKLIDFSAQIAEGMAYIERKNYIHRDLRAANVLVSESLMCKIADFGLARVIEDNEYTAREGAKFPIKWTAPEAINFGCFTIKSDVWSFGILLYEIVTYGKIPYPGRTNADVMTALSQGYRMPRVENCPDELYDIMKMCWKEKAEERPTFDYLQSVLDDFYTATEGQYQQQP

SMILES	EC50 (Lyn enzyme)	EC50 (Btk enzyme (His-Btk); bin bounds given in nM)	EC50 (Btk enzyme (His-Btk); bounds given in μM)
C=CC(=O)N1CCCC[C@H]1c1nc(-c2ccc(C(=O)Nc3cc(C(F)(F)F)ccn3)cc2)c2c(C)nccn12 [Example 27, (S)-4-(3-(1-acryloylpiperidin-2-yl)-8-methylimidazo[1,5-a]pyrazin-1-yl)-N-(4-(trifluoromethyl)pyridin-2-yl)benzamide]	≥ 1 µM	< 10 nM	
Cc1nccn2c([C@@H]3CCCCN3C(=O)/C=C/CN3CCCC3)nc(-c3ccc(C(=O)Nc4cc(C(F)(F)F)ccn4)cc3)c12 [Example 21, (S,E)-4-(8-methyl-3-(1-(4-(pyrrolidin-1-yl)but-2-enoyl)piperidin-2-yl)imidazo[1,5-a]pyrazin-1-yl)-N-(4-(trifluoromethyl)pyridin-2-yl)benzamide]	≥ 1 µM	< 10 nM	
C=CS(=O)(=O)N1CCCC[C@H]1c1nc(-c2ccc(C(=O)Nc3cc(CCC)ccn3)cc2)c2c(C)nccn12 [Example 4, (S)-4-(8-Methyl-3-(1-(vinylsulfonyl)piperidin-2-yl)imidazo[1,5-a]pyrazin-1-yl)-N-(4-propylpyridin-2-yl)benzamide]	≥ 1 µM	< 10 nM	
CC#CC(=O)N[C@@H](C)c1nc(-c2ccc(C(=O)Nc3cc(C(F)(F)F)ccn3)cc2)c2c(C)nccn12 [Example 7, (S)-4-(3-(1-But-2-ynamidoethyl)-8-methylimidazo[1,5-a]pyrazin-1-yl)-N-(4-(trifluoromethyl)pyridin-2-yl)benzamide]	≥ 1 µM	< 10 nM	
CC#CC(=O)N[C@@H](C)c1nc(-c2ccc(C(=O)Nc3cc(CCC)ccn3)cc2)c2c(C)nccn12 [Example 38, (S)-4-(3-(1-but-2-ynamidoethyl)-8-methylimidazo[1,5-a]pyrazin-1-yl)-N-(4-propylpyridin-2-yl)benzamide]	≥ 1 µM	< 10 nM	
CCCc1ccnc(NC(=O)c2ccc(-c3nc([C@H](C)NC(=O)/C=C/CN(C)C)n4ccnc(C)c34)cc2)c1 [Example 28, (S,E)-4-(3-(1-(4-(dimethylamino)but-2-enamido)ethyl)-8-methylimidazo[1,5-a]pyrazin-1-yl)-N-(4-propylpyridin-2-yl)benzamide]	≥ 1 µM	< 10 nM	
C=CC(=O)N[C@@H](C)c1nc(-c2ccc(C(=O)Nc3cc(C(F)(F)F)ccn3)cc2)c2c(C)nccn12 [Example 8, (S)-4-(3-(1-Acrylamidoethyl)-8-methylimidazo[1,5-a]pyrazin-1-yl)-N-(4-(trifluoromethyl)pyridin-2-yl)benzamide]	≥ 1 µM	< 10 nM	
CCCc1ccnc(NC(=O)c2ccc(-c3nc([C@H](C)N(C)C(=O)/C=C/CN(C)C)n4ccnc(C)c34)cc2)c1 [Example 18, (S,E)-4-(3-(1-(4-(dimethylamino)-N-methylbut-2-enamido)ethyl)-8-methylimidazo[1,5-a]pyrazin-1-yl)-N-(4-propylpyridin-2-yl)benzamide]	≥ 1 µM	< 10 nM	
CC#CC(=O)N1CCC[C@H]1c1nc(-c2ccc(C(=O)Nc3cc(C)ccn3)cc2)c2c(C)nccn12 [Example 15, (S)-4-(3-(1-but-2-ynoylpyrrolidin-2-yl)-8-methylimidazo[1,5-a]pyrazin-1-yl)-N-(4-methylpyridin-2-yl)benzamide]	≥ 1 µM	≥ 100 nM	< 1000 nM
C=CC(=O)N1CCCC[C@H]1c1nc(-c2ccc(C(=O)Nc3cc(CCC)ccn3)cc2)c2c(C)nccn12 [Example 2, (S)-4-(3-(1-Acryloylpiperidin-2-yl)-8-methylimidazo[1,5-a]pyrazin-1-yl)-N-(4-propylpyridin-2-yl)benzamide]	≥ 1 µM	< 10 nM	
CC#CC(=O)N1CCCC[C@H]1c1nc(-c2ccc(C(=O)Nc3cc(C(F)(F)F)ccn3)cc2)c2c(C)nccn12 [Example 29, (S)-4-(3-(1-but-2-ynoylpiperidin-2-yl)-8-methylimidazo[1,5-a]pyrazin-1-yl)-N-(4-(trifluoromethyl)pyridin-2-yl)benzamide]	≥ 1 µM	< 10 nM	
CCCc1ccnc(NC(=O)c2ccc(-c3nc([C@@H]4CCCCN4C(=O)/C=C/CN(C)C)n4ccnc(C)c34)cc2)c1 [Example 3, (S,E)-4-(3-(1-(4-(Dimethylamino)but-2-enoyl)piperidin-2-yl)-8-methylimidazo[1,5-a]pyrazin-1-yl)-N-(4-propylpyridin-2-yl)benzamide]	≥ 1 µM	< 10 nM	

Next, values leading:

EC50 (Lyn enzyme)	EC50 (Btk enzyme (His-Btk); bin bounds given in nM)	EC50 (Btk enzyme (His-Btk); bounds given in μM)	SMILES
≥ 1 µM	< 10 nM		COC/C=C/C(=O)N[C@@H](C)c1nc(-c2ccc(C(=O)Nc3cc(C(F)(F)F)ccn3)cc2)c2c(C)nccn12 [Example 6, (S,E)-4-(3-(1-(4-Methoxybut-2-enamido)ethyl)-8-methylimidazo[1,5-a]pyrazin-1-yl)-N-(4-(trifluoromethyl)pyridin-2-yl)benzamide]
≥ 1 µM	≥ 100 nM	< 1000 nM	Cc1nccn2c([C@@H]3CCCN3C(=O)/C=C/CN3CCCC3)nc(-c3ccc(C(=O)Nc4ccccn4)cc3)c12 [Example 25, (S,E)-4-(8-methyl-3-(1-(4-(pyrrolidin-1-yl)but-2-enoyl)pyrrolidin-2-yl)imidazo[1,5-a]pyrazin-1-yl)-N-(pyridin-2-yl)benzamide]
≥ 1 µM	< 10 nM		C=CC(=O)N1CCC[C@H]1c1nc(-c2ccc(C(=O)Nc3cc(C#N)ccn3)cc2)c2c(C)nccn12 [Example 13, (S)-4-(3-(1-Acryloylpyrrolidin-2-yl)-8-methylimidazo[1,5-a]pyrazin-1-yl)-N-(4-cyanopyridin-2-yl)benzamide]
≥ 1 µM	< 10 nM		C=CC(=O)N1CCC[C@H]1c1nc(-c2ccc(C(=O)Nc3cc(C(F)(F)F)ccn3)cc2)c2c(C)nccn12 [Example 10, (S)-4-(3-(1-Acryloylpyrrolidin-2-yl)-8-methylimidazo[1,5-a]pyrazin-1-yl)-N-(4-(trifluoromethyl)pyridin-2-yl)benzamide]
≥ 1 µM	< 10 nM		Cc1nccn2c([C@@H]3CCCCN3C(=O)/C=C/CN(C)C)nc(-c3ccc(C(=O)Nc4cc(C(F)(F)F)ccn4)cc3)c12 [Example 37, (S,E)-4-(3-(1-(4-(dimethylamino)but-2-enoyl)piperidin-2-yl)-8-methylimidazo[1,5-a]pyrazin-1-yl)-N-(4-(trifluoromethyl)pyridin-2-yl)benzamide]
≥ 1 µM	< 10 nM		C=CC(=O)N1CCC[C@H]1c1nc(-c2ccc(C(=O)Nc3ccccn3)cc2)c2c(C)nccn12 [Example 19, (S)-4-(3-(1-acryloylpyrrolidin-2-yl)-8-methylimidazo[1,5-a]pyrazin-1-yl)-N-(pyridin-2-yl)benzamide]
